Values after ≈ are worked out from the molar mass of the structure shown.
Experiments:
[1] = system: HCMV wild-type; experiment: HCMV yield assay; assay type: cell-based, human cytomegalovirus; conditions: human foreskin fibroblasts; for IC50: Human betaherpesvirus 5, Fibroblast, read-out: IC50 Ug/ml HCMV
Protocol: Yield assay. Monolayer cultures of human foreskin fibroblasts are infected with HCMV wild-type, typically at a multiplicity of infection equal to 0.2, in the presence of inhibitor compound (varying concentrations). At three days post-infection, total virus produced in these cultures (i.e. virus yield) is assessed by harvesting and titering the virus in 12-well plates of cultured human foreskin fibroblasts (done in the absence of inhibitor). Plaques are quantified at 2 weeks post-infection. An inhibitor of HCMV is identified by the reduction in titer of virus yield in the presence, compared to the titer in the absence of compound. In this assay, the relative anti-HCMV activity of an inhibitor is typically determined by calculating the IC50 or IC90 value, that is, the amount of compound required to reduce the virus yield by 50% or 90%, respectively. Table I describes IC50 data for compounds tested against HCMV.

[2] = system: HSV-1; experiment: HSV Antiviral (ELISA) Assay; assay type: cell-based, herpes simplex virus type 1; conditions: Vero cells, HSV-1; for IC50: Human alphaherpesvirus 1, Vero, read-out: IC50 Ug/ml HSV
Protocol: Vero cells (ATCC #CCL-81) are plated on 96-well tissue culture plates at 3.5×10^4 cells per 100 μl tissue culture DMEM (Dulbecco's modified Eagle media) supplemented with 2% fetal bovine serum (FBS) in each well. After overnight incubation @ 37° C. (in 5% CO2) and 30 minutes prior to infection with HSV-1 (multiplicity of infection equal to 0.006), cells are either untreated, or treated with test compound (multiple concentrations) or reference standard drug control. After approximately 24 hours post-infection incubation @ 37° C. (in 5% CO2), cells are fixed for ELISA assay. The primary antibody is murine anti-HSV glycoprotein D monoclonal primary antibody and the secondary antibody is goat anti-mouse IgG linked to β-galactosidase. Thus the extent of viral replication is determined by assessing β-galactosidase activity by quantifying the generation of the 4-methyl umbelliferone fluorescent cleavage product after addition of the methyl umbelliferyl-β-D-galactoside (Sigma #M1633) substrate on a microfluorimeter (365 nm for excitation and 450 nm for emission). Antiviral activity (IC50) of the test compound is determined by comparing the flourescence obtained in absence of compound to that obtained in the presence of compound.

[3] = system: VZV strain Ellen; experiment: VZV Antiviral (ELISA) Assay; assay type: cell-based, varicella-zoster virus; conditions: human foreskin fibroblast cells; for IC50 / inhibition at 10 µg/mL: Human alphaherpesvirus 3, Fibroblast; for IC50: read-out: IC50 Ug/ml VZV; for inhibition at 10 µg/mL: read-out: % inhibition 10 ug/ml VZV, 10 ug/ml
Protocol: For the generation of stock VZV to be used in the assay, VZV strain Ellen (ATCC #VR-1367) is used to infect human foreskin fibroblast (HFF) cells at low multiplicity (less than 0.1) and incubated overnight at 37° C. in 5% CO2. After the overnight incubation, the mixture of uninfected and VZV-infected HFF infected cells are then harvested and added to each well of 96-well plates (3.5×10^4 cells in 100 μl DMEM supplemented with 2% FBS) which contain test compound or the reference standard drug control (in 100 μl DMEM supplemented with 2% FBS per well). These cells are incubated for three days at 37° C. in 5% CO2, then fixed for ELISA assay. The primary antibody is murine anti-VZV glycoprotein II monoclonal antibody (Applied Biosystems, Inc. #13-145-100) and the secondary antibody is goat anti-mouse IgG linked to β-galactosidase. Thus the extent of viral replication is determined by assessing β-galactosidase activity by quantifying the generation of the 4-methyl umbelliferone fluorescent cleavage product after addition of the methyl umbelliferyl-β-D-galactoside (Sigma #M1633) substrate on a microfluorimeter (365 nm for excitation and 450 nm for emission). Antiviral activity (IC50) of the test compound is determined by comparing the flourescence obtained in absence of compound to that obtained in the presence of compound.

SMILES: CCCCOc1c(Cl)cc(NC(=S)Nc2ccc(NC(C)=O)cc2)cc1Cl [Example 177, N-{4-[3-(4-Butoxy-3,5-dichloro-phenyl)-thioureido]-phenyl}-acetamide]
- IC50 [1]: 3.5 µg/mL (≈ 8.21 µM)
- IC50 [2]: > 50 µg/mL
- IC50 [3]: > 10 µg/mL
- inhibition at 10 µg/mL [3]: 19%

SMILES: CC(=O)Nc1ccc(NC(=S)Nc2ccc(Cl)c(Cl)c2)cc1 [Example 901, N-{4-[3-(3,4-Dichloro-phenyl)-thioureido]-phenyl}-acetamide]
- IC50 [1]: 2.5 µg/mL (≈ 7.06 µM)
- IC50 [2]: 1.5 µg/mL (≈ 4.23 µM)
- IC50 [3]: > 10 µg/mL
- inhibition at 10 µg/mL [3]: 1%

SMILES: CC(=O)Nc1ccc(NC(=S)Nc2cccc(Cl)c2)cc1 [Example 816, N-{4-[3-(3-Chloro-phenyl)-thioureido]-phenyl}-acetamide]
- IC50 [1]: 25 µg/mL (≈ 78.2 µM)
- IC50 [2]: 20 µg/mL (≈ 62.5 µM)
- IC50 [3]: > 10 µg/mL
- inhibition at 10 µg/mL [3]: 30%

SMILES: CCCCCC(=O)Nc1ccc(NC(=S)Nc2cc(Br)c(OC)cc2OC)cc1 [Example 826, Hexanoic acid {4-[3-(5-bromo-2,4-dimethoxy-phenyl)-thioureido]-phenyl}-amide]
- IC50 [1]: > 10 µg/mL
- IC50 [2]: 3 µg/mL (≈ 6.24 µM)
- IC50 [3]: > 10 µg/mL
- inhibition at 10 µg/mL [3]: 30%

SMILES: CC(=O)Nc1ccc(NC(=S)Nc2cc(C)c(O)c(Cl)c2)cc1 [Example 128, N-{4-[3-(3-Chloro-4-hydroxy-5-methyl-phenyl)-thioureido]-phenyl}-acetamide]
- IC50 [1]: 15 µg/mL (≈ 42.9 µM)
- IC50 [2]: 15 µg/mL (≈ 42.9 µM)
- IC50 [3]: > 10 µg/mL
- inhibition at 10 µg/mL [3]: 35%

SMILES: COc1ccc(Cl)cc1NC(=S)Nc1ccc(NC(C)=O)cc1 [Example 107, N-{4-[3-(5-Chloro-2-methoxy-phenyl)-thioureido]-phenyl}-acetamide]
- IC50 [1]: > 50 µg/mL
- IC50 [2]: > 50 µg/mL
- IC50 [3]: > 10 µg/mL
- inhibition at 10 µg/mL [3]: 20%

SMILES: COc1ccc(NC(=S)Nc2ccc(NC(C)=O)cc2)cc1 [Example 104, N-{4-[3-(4-Methoxy-phenyl)-thioureido]-phenyl}-acetamide]
- IC50 [1]: > 50 µg/mL
- IC50 [2]: > 50 µg/mL
- IC50 [3]: > 10 µg/mL
- inhibition at 10 µg/mL [3]: 8%

SMILES: CC(=O)Nc1ccc(NC(=S)Nc2ccc(N3CCCC4CCCCC43)c(Cl)c2)cc1 (stereo not drawn) [Example 282, N-(4-{3-[3-Chloro-4-(octahydro-quinolin-1-yl)-phenyl]-thioureido}-phenyl)-acetamide]
- IC50 [1]: > 10 µg/mL
- IC50 [2]: > 10 µg/mL
- IC50 [3]: > 10 µg/mL
- inhibition at 10 µg/mL [3]: 50%

SMILES: CC(=O)Nc1ccc(NC(=S)Nc2ccc(-c3ccno3)c(Cl)c2)cc1 [Example 924, N-{4-[3-(3-Chloro-4-isoxazol-5-yl-phenyl)-thioureido]-phenyl}-acetamide]
- IC50 [1]: 0.9 µg/mL (≈ 2.33 µM)
- IC50 [2]: > 10 µg/mL
- IC50 [3]: > 10 µg/mL
- inhibition at 10 µg/mL [3]: 4%

SMILES: CC(=O)Nc1ccc(NC(=S)Nc2cc(Cl)c(Cl)c(Cl)c2)cc1 [Example 936, N-{4-[3-(3,4,5-Trichloro-phenyl)-thioureido]-phenyl}-acetamide]
- IC50 [1]: 1 µg/mL (≈ 2.57 µM)
- IC50 [2]: 1.5 µg/mL (≈ 3.86 µM)
- IC50 [3]: > 10 µg/mL
- inhibition at 10 µg/mL [3]: 51%

SMILES: CC(=O)Nc1ccc(NC(=S)Nc2ccc(N(C)C)c(Cl)c2)cc1 [Example 240, N-{4-[3-(3-Chloro-4-dimethylamino-phenyl)-thioureido]-phenyl}-acetamide]
- IC50 [1]: 1.5 µg/mL (≈ 4.13 µM)
- IC50 [2]: > 50 µg/mL
- IC50 [3]: > 10 µg/mL
- inhibition at 10 µg/mL [3]: 5%

SMILES: CC(=O)Nc1ccc(NC(=S)Nc2ccc(N3CCCCC3)c(Cl)c2)cc1 [Example 239, N-{4-[3-(3-Chloro-4-piperidin-1-yl-phenyl)-thioureido]-phenyl}-acetamide]
- IC50 [1]: > 10 µg/mL
- IC50 [2]: 25 µg/mL (≈ 62 µM)
- IC50 [3]: > 10 µg/mL
- inhibition at 10 µg/mL [3]: 33%

SMILES: COc1cc(OC)c(NC(=S)Nc2ccc(NC(C)=O)cc2)cc1Br [Example 150, N-{4-[3-(5-Bromo-2,4-dimethoxy-phenyl)-thioureido]-phenyl}-acetamide]
- IC50 [1]: 40 µg/mL (≈ 94.3 µM)
- IC50 [2]: 9 µg/mL (≈ 21.2 µM)
- IC50 [3]: > 10 µg/mL
- inhibition at 10 µg/mL [3]: 3%

SMILES: CC(=O)Nc1ccc(NC(=S)Nc2ccc(N(C)C3CCCCC3)c(Cl)c2)cc1 [Example 203]
- IC50 Ug/ml HCMV [1]: 2 Ug/ml
- IC50 Ug/ml HSV [2]: >10 Ug/ml
- % inhibition 10 ug/ml VZV ([3]; 10 ug/ml): 22%
- IC50 Ug/ml VZV [3]: >10 Ug/ml

SMILES: COc1cc(OCC(=O)OC(C)(C)C)c(NC(=S)Nc2ccc(NC(C)=O)cc2)cc1Cl [Example 218, {2-[3-(4-Acetylamino-phenyl)-thioureido]-4-chloro-5-methoxy-phenoxy}-acetic acid tert-butyl ester]
- IC50 [1]: > 10 µg/mL
- IC50 [2]: 15 µg/mL (≈ 31.3 µM)
- IC50 [3]: > 10 µg/mL
- inhibition at 10 µg/mL [3]: 18%

SMILES: CC(=O)Nc1ccc(NC(=S)Nc2ccc(N(C)c3ccccc3)c(Cl)c2)cc1 [Example 842, N-(4-{3-[3-Chloro-4-(methyl-phenyl-amino)-phenyl]-thioureido}-phenyl)-acetamide]
- IC50 [1]: 1.5 µg/mL (≈ 3.53 µM)
- IC50 [2]: > 10 µg/mL
- IC50 [3]: > 10 µg/mL
- inhibition at 10 µg/mL [3]: 33%

SMILES: COc1ccc(NC(=S)Nc2ccc(NC(C)=O)cc2)c(OC)c1 [Example 103, N-{4-[3-(2,4-Dimethoxy-phenyl)-thioureido]-phenyl}-acetamide]
- IC50 [1]: > 50 µg/mL
- IC50 [2]: 25 µg/mL (≈ 72.4 µM)
- IC50 [3]: > 10 µg/mL
- inhibition at 10 µg/mL [3]: 28%

SMILES: CC(=O)Nc1ccc(NC(=S)Nc2ccc(Oc3ccc(Cl)cc3S(=O)(=O)O)c(Cl)c2)cc1 [Example 262, 2-{4-[3-(4-Acetylamino-phenyl)-thioureido]-2-chloro-phenoxy}-5-chloro-benzenesulfonic acid]
- IC50 [1]: > 50 µg/mL
- IC50 [2]: > 50 µg/mL
- IC50 [3]: > 10 µg/mL
- inhibition at 10 µg/mL [3]: 15%

SMILES: COc1cc(OCCCC#N)c(Cl)cc1NC(=S)Nc1ccc(NC(C)=O)cc1 [Example 211, N-(4-{3-[5-Chloro-2-methoxy-4-(4-nitrilo-butoxy)-phenyl]-thioureido}-phenyl)-acetamide]
- IC50 [1]: > 10 µg/mL
- IC50 [2]: 30 µg/mL (≈ 69.3 µM)
- IC50 [3]: > 10 µg/mL
- inhibition at 10 µg/mL [3]: 35%

SMILES: COc1cc(OCc2ccccc2)c(Cl)cc1NC(=S)Nc1ccc(NC(C)=O)cc1 [Example 836, N-{4-[3-(4-Benzyloxy-5-chloro-2-methoxy-phenyl)-thioureido]-phenyl}-acetamide]
- IC50 [1]: > 10 µg/mL
- IC50 [2]: 8 µg/mL (≈ 17.5 µM)
- IC50 [3]: 2.5 µg/mL (≈ 5.48 µM)
- inhibition at 10 µg/mL [3]: 92%

SMILES: COc1cc(OC)c(NC(=S)Nc2ccc(NC(C)=O)cc2C)cc1Cl [Example 297, N-{4-[3-(5-Chloro-2,4-dimethoxy-phenyl)-thioureido]-3-methyl-phenyl}-acetamide]
- IC50 [1]: > 10 µg/mL
- IC50 [2]: 1 µg/mL (≈ 2.54 µM)
- IC50 [3]: > 10 µg/mL
- inhibition at 10 µg/mL [3]: 23%

SMILES: CC(=O)Nc1ccc(NC(=S)Nc2ccc(I)c(Cl)c2)cc1 [Example 903, N-{4-[3-(3-Chloro-4-iodo-phenyl)-thioureido]-phenyl}-acetamide]
- IC50 [1]: 0.3 µg/mL (≈ 0.673 µM)
- IC50 [2]: 10 µg/mL (≈ 22.4 µM)
- IC50 [3]: > 10 µg/mL
- inhibition at 10 µg/mL [3]: 26%

SMILES: CCOC(=O)COc1c(Cl)cc(NC(=S)Nc2ccc(NC(C)=O)cc2)cc1Cl [Example 884, {4-[3-(4-Acetylamino-phenyl)-thioureido]-2,6-dichloro-phenoxy}-acetic acid ethyl ester]
- IC50 [1]: > 10 µg/mL
- IC50 [2]: > 50 µg/mL
- IC50 [3]: > 10 µg/mL
- inhibition at 10 µg/mL [3]: 21%

SMILES: CC(=O)Nc1ccc(NC(=S)Nc2cc(Cl)c(OCC(N)=O)c(Cl)c2)cc1 [Example 882, 2-{4-[3-(4-Acetylamino-phenyl)-thioureido]-2,6-dichloro-phenoxy}-acetamide]
- IC50 [1]: > 50 µg/mL
- IC50 [2]: > 50 µg/mL
- IC50 [3]: > 10 µg/mL
- inhibition at 10 µg/mL [3]: 15%
